{"source": "patent US8053446B2", "about": "“Cyanoguanidine compounds” (Leo Pharma A/S, priority 2004, dated 2011)", "origin": "cited, not measured here", "key": {"[1]": {"system": "normal human endothelial cells"}, "human tumour cells": {"system": "human tumour cells", "conditions": "nude mice transplanted with human tumour cells; also against tumour cells resistant to conventional anticancer drugs such as paclitaxel"}}, "data": [{"smiles": "N#CNC(=Nc1ccncc1)NCCCCCCOc1ccc(Cl)cc1", "note": "[N-(6-(4-chlorophenoxy)hexyl)-N′-cyano-N″-(4-pyridyl)guanidine]", "values": [{"measurement": "antiproliferative activity", "setting": "[1]", "value": "considerably less antiproliferative activity"}, {"measurement": "antitumour activity", "setting": "human tumour cells", "value": "substantial antitumour activity"}]}]}
